In ChEMBL document CHEMBL1143919, “Sugar Chips immobilized with synthetic sulfated disaccharides of heparin/heparan sulfate partial structure” (Bioorg Med Chem Lett, 2008):
pKd: −log10 of the molar value.

Legend:
Fibronectin = Fibronectin (Homo sapiens, UniProt P02751); assay: Binding affinity to fibronectin using surface plasmon resonance imaging sensor method
[1] = Binding affinity to human recombinant von Willebrand factor A1 domain using surface plasmon resonance imaging sensor

Fibronectin, sequence (P02751 whole entry, the tested form may be a part): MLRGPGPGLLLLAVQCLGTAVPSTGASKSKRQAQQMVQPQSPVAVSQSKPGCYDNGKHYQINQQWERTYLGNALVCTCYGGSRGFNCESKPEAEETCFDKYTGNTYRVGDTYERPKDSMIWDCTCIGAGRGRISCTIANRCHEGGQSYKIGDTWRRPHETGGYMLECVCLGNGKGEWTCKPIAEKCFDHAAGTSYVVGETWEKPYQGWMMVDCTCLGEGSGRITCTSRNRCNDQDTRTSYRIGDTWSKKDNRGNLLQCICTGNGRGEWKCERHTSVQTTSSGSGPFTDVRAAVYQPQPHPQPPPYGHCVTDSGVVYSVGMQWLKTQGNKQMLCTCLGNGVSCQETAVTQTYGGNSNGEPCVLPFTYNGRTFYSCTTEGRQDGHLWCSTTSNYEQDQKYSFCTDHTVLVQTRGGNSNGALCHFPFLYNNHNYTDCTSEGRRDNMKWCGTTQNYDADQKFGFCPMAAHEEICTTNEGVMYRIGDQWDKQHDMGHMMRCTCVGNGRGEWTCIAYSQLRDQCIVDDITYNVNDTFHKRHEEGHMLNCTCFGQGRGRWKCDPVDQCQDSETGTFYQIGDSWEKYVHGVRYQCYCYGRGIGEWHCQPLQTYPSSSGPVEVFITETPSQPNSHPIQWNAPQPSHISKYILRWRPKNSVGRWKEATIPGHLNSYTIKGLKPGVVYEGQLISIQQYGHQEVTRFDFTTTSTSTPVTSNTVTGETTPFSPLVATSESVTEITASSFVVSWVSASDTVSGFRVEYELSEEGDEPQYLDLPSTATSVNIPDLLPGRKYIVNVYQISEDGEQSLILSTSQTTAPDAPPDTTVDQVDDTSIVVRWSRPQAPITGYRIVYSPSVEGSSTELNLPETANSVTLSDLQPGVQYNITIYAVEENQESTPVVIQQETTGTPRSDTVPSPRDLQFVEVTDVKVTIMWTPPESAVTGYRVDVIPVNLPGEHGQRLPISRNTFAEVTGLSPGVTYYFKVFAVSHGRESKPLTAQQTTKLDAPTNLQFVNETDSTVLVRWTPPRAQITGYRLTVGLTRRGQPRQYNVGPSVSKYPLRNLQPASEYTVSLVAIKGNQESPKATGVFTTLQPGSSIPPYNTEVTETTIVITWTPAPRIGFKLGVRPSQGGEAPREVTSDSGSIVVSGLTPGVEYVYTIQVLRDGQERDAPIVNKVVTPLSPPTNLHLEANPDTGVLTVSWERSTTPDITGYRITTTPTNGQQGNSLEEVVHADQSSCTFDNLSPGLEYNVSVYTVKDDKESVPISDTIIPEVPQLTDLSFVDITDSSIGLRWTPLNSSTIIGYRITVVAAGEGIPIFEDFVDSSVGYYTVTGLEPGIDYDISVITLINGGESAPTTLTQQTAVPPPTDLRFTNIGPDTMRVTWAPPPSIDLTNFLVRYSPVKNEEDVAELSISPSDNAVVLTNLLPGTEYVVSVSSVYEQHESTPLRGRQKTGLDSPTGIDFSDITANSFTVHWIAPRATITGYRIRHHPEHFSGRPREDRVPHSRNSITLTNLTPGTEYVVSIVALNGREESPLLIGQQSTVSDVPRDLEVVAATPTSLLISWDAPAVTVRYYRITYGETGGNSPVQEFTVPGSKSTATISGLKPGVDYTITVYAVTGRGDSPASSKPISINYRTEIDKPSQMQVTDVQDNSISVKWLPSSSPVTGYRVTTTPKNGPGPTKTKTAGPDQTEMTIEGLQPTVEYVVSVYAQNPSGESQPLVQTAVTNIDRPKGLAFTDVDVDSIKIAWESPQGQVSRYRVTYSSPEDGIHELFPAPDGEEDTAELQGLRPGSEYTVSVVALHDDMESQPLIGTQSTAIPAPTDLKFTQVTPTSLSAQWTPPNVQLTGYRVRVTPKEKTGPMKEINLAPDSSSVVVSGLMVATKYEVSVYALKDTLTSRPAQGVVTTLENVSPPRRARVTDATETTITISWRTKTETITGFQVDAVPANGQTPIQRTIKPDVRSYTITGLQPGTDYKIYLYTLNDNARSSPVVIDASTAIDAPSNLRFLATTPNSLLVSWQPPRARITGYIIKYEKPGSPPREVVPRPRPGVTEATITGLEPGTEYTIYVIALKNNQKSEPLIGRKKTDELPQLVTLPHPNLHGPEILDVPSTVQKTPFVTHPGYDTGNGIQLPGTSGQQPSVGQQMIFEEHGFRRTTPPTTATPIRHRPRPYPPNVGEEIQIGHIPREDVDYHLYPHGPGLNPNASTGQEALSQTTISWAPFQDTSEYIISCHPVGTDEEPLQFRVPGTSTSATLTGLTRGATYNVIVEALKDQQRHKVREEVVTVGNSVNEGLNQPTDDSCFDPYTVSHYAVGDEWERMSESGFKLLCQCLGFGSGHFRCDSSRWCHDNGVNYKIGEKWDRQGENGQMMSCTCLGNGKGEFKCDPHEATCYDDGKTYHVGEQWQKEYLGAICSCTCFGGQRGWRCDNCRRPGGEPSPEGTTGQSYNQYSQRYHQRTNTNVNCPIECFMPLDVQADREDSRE

pKd (Fibronectin)	pKd [1]	SMILES
7.52	6.05	CO[C@H]1[C@H](O)[C@@H](NS(=O)(=O)O)[C@@H](O[C@H]2[C@H](O)[C@@H](OS(=O)(=O)O)[C@H](OC[C@@H](O)[C@@H](O)[C@H](O)[C@@H](O)CNc3cccc(NC(=O)CCCCC4CCSS4)c3)O[C@H]2C(=O)O)O[C@@H]1CO (stereo partly drawn)
8.19	5.85	CO[C@H]1[C@H](O)[C@@H](NS(=O)(=O)O)[C@@H](O[C@H]2[C@H](O)[C@@H](O)[C@H](OC[C@@H](O)[C@@H](O)[C@H](O)[C@@H](O)CNc3cccc(NC(=O)CCCCC4CCSS4)c3)O[C@@H]2C(=O)O)O[C@@H]1COS(=O)(=O)O (stereo partly drawn)
8.26	6.00	CO[C@H]1[C@H](O)[C@@H](NS(=O)(=O)O)[C@@H](O[C@H]2[C@H](O)[C@@H](OS(=O)(=O)O)[C@H](OC[C@@H](O)[C@@H](O)[C@H](O)[C@@H](O)CNc3cccc(NC(=O)CCCCC4CCSS4)c3)O[C@H]2C(=O)O)O[C@@H]1COS(=O)(=O)O (stereo partly drawn)
7.48	5.37	CO[C@H]1[C@H](O)[C@@H](NS(=O)(=O)O)[C@@H](O[C@H]2[C@H](O)[C@@H](O)[C@H](OC[C@@H](O)[C@@H](O)[C@H](O)[C@@H](O)CNc3cccc(NC(=O)CCCCC4CCSS4)c3)O[C@@H]2C(=O)O)O[C@@H]1CO (stereo partly drawn)
